Experimental findings from publication PMC4321377, “Multiple signals modulate the activity of the complex sensor kinase TodS” (Microbial Biotechnology, 2014) are described below.

As a reminder, the EC50 is the concentration needed to bring the measured effect to its halfway point. Low readings indicate a more potent agent, high ones a less potent agent.

This assay addresses T1, TodS (Pseudomonas putida, UniProt E0X9C7).
T1 construct: full-length TodS, N-terminal His tag
As to the kind of experiment: autophosphorylation assay with [γ-32P]ATP of purified TodS; ITC showed an exothermic chemical reaction. It is filed as biochemical.

T1 sequence (E0X9C7 whole entry): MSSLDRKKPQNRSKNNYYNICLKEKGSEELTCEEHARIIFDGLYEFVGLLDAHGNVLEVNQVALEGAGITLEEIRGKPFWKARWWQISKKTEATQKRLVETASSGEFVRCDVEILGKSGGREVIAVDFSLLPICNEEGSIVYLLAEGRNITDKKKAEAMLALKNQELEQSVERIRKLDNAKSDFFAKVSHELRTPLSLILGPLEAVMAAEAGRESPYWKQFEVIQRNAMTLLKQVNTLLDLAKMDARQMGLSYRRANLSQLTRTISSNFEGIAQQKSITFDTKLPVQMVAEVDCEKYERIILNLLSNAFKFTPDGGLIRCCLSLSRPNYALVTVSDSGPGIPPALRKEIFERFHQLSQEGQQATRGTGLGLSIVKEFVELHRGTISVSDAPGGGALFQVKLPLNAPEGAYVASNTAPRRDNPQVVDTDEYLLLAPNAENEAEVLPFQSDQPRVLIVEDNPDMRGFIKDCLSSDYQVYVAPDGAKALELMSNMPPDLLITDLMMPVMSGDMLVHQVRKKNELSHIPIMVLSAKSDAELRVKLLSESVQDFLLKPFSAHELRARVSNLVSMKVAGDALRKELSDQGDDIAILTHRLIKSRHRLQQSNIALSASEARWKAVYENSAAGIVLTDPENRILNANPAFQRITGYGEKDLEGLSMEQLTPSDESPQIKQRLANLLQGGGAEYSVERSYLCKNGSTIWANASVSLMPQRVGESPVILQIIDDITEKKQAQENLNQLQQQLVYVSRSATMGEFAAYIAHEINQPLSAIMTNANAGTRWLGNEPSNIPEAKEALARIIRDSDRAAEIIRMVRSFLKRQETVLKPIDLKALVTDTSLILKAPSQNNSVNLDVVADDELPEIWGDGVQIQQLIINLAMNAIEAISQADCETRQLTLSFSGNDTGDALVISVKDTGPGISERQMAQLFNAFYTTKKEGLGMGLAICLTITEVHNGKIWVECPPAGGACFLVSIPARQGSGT

As to `CC1=CC(=O)c2ccccc2C1=O` [menadione, 2-methyl-l,4-naphthoquinone], the EC50 is 170 ± 25 µM.
